Test results: the supplement of paper PMC4932681

Tests used:
Test in all cases: viability inhibition at highest dose (% inhibition); higher = more growth inhibition
ZR-75-1 Tam2 = conditions: 4-OH-tamoxifen in medium 1 µM; 72 h
Description: (§1)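 Percent inhibition of viability (CellTiter-Glo, 72 h) at the highest tested concentration (D5), normalised to DMSO (0%) and 100 µM benzethonium chloride (100%). Resistant lines and the 'in 1µM tamoxifen' arms were tested in 1 µM 4-OH-tamoxifen.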

MCF-7 Tam1 = conditions: 4-OH-tamoxifen in medium 1 µM; 72 h
Description: as §1

MCF-7 = conditions: 72 h
Description: as §1

ZR-75-1 Tam1 = conditions: 4-OH-tamoxifen in medium 1 µM; 72 h
Description: as §1

ZR-75-1 = conditions: 72 h
Description: as §1

BT-474 Tam1 = conditions: 4-OH-tamoxifen in medium 1 µM; 72 h
Description: as §1

BT-474 Tam2 = conditions: 4-OH-tamoxifen in medium 1 µM; 72 h
Description: as §1

BT-474 = conditions: 72 h
Description: as §1

T-47D Tam2 = conditions: 4-OH-tamoxifen in medium 1 µM; 72 h
Description: as §1

T-47D = conditions: 72 h
Description: as §1

T-47D Tam1 = conditions: 4-OH-tamoxifen in medium 1 µM; 72 h
Description: as §1

Row | Structure (SMILES) | viability inhibition at highest dose (ZR-75-1 Tam2) | viability inhibition at highest dose (MCF-7 Tam1) | viability inhibition at highest dose (MCF-7; 4-OH-tamoxifen in medium 0 µM) | viability inhibition at highest dose (MCF-7; 4-OH-tamoxifen in medium 1 µM) | viability inhibition at highest dose (ZR-75-1 Tam1) | viability inhibition at highest dose (ZR-75-1; 4-OH-tamoxifen in medium 0 µM) | viability inhibition at highest dose (ZR-75-1; 4-OH-tamoxifen in medium 1 µM) | viability inhibition at highest dose (BT-474 Tam1) | viability inhibition at highest dose (BT-474 Tam2) | viability inhibition at highest dose (BT-474; 4-OH-tamoxifen in medium 0 µM) | viability inhibition at highest dose (BT-474; 4-OH-tamoxifen in medium 1 µM) | viability inhibition at highest dose (T-47D Tam2) | viability inhibition at highest dose (T-47D; 4-OH-tamoxifen in medium 0 µM) | viability inhibition at highest dose (T-47D; 4-OH-tamoxifen in medium 1 µM) | viability inhibition at highest dose (T-47D Tam1)
1 | CC(=O)OC[C@H]1O[C@@H]([S-])[C@H](OC(C)=O)[C@@H](OC(C)=O)[C@@H]1OC(C)=O.CCP(CC)CC.[Au+] [Auranofin] (drug 2500 nM) | 12.5 | 22.4 | 91.7 | 33.9 | 20.7 | 15.9 | 25.5 | 96 | 66.5 | 58 | 97.5 | 59.3 | 31 | 36 | 54.3
2 | O=C(O)C(=O)O.[NH-][C@@H]1CCCC[C@H]1[NH-].[Pt+2] [Oxaliplatin] (drug 10000 nM) | 5.48 | -5.32 | 4.06 | 3.34 | 4.08 | 2.13 | -0.0598 | -7.39 | 1.63 | -9.5 | -21.1 | 5.52 | -7.69 | -13.3 | 1.11
3 | C[C@]12C=CC(=O)C=C1CC[C@@H]1[C@@H]2C(=O)C[C@@]2(C)[C@H]1CC[C@]2(O)C(=O)CO [Prednisone] (drug 10000 nM) | 5.99 | -6.7 | 4.17 | -2.57 | -0.823 | -12.2 | -9.15 | 0.805 | -4.01 | -5.13 | -15.9 | 6.96 | -2.36 | -14.5 | 0.12
4 | O=C(O)C1(C(=O)O)CCC1.[NH2-].[NH2-].[Pt+2] [Carboplatin] (drug 10000 nM) | -0.671 | -6.52 | 1.69 | 6.48 | 2.36 | -16.2 | -1.87 | -1.28 | 3.89 | -12.2 | -19 | 1.93 | -16.3 | -18 | -4.98
5 | Oc1ccc2c(c1)CC[C@H](c1ccccc1)[C@@H]2c1ccc(OCCN2CCCC2)cc1 [Lasofoxifene] (drug 1000 nM) | 2.17 | -2.47 | 3.8 | 25 | 3.54 | -9.97 | -2.22 | 34.3 | 12.4 | -9.14 | 24.2 | 5.06 | -21.7 | -10.6 | 2.67
6 | C=CCn1c(=O)c2cnc(Nc3ccc(N4CCN(C)CC4)cc3)nc2n1-c1cccc(C(C)(C)O)n1 [MK-1775] (drug 10000 nM) | 1.58 | 6.3 | 51.7 | 35.9 | 1.62 | 21.9 | 14.6 | 40.9 | 30.6 | 25 | 44 | 38.8 | 22.4 | 16.9 | 39.6
7 | C[C@]12CC[C@@H]3c4ccc(O)cc4C[C@@H](CCCCCCCCC[S+]([O-])CCCC(F)(F)C(F)(F)F)[C@H]3[C@@H]1CC[C@@H]2O (stereo not given in full) [Fulvestrant] (drug 1000 nM) | -6.33 | -0.218 | 31.4 | 17.5 | -1.86 | -18.5 | -4.88 | -6.25 | 4.97 | -5.27 | -0.276 | 8.69 | 1.98 | -1.62 | 12.9
8 | CC[C@H](Nc1ncnc2[nH]cnc12)c1nc2cccc(F)c2c(=O)n1-c1ccccc1 [CAL-101] (drug 10000 nM) | 57.3 | -0.638 | 22.4 | 21.3 | 50.8 | 45.9 | 45 | 8.87 | 5.84 | 4.44 | 17 | 33.6 | 15.2 | 13.7 | 24.5
9 | COc1cc(Nc2c(C#N)cnc3cc(OCCCN4CCN(C)CC4)c(OC)cc23)c(Cl)cc1Cl [Bosutinib] (drug 10000 nM) | 57.5 | 50.7 | 81.6 | 78.4 | 22.6 | 17.9 | 28.8 | 96.4 | 95 | 83.1 | 95 | 77.5 | 41.6 | 66.7 | 72
10 | Cn1c(Nc2ccc(C(F)(F)F)cc2)nc2cc(Oc3ccnc(-c4ncc(C(F)(F)F)[nH]4)c3)ccc21 [RAF265] (drug 1000 nM) | 11.6 | -5.31 | -2.02 | -1.12 | -1.02 | 2.38 | -4.76 | 4.22 | 9 | -9.23 | 7.76 | 2.98 | 12.4 | -5.82 | 22.5
11 | COc1cc2c(Oc3ccc(NC(=O)C4(C(=O)Nc5ccc(F)cc5)CC4)cc3F)ccnc2cc1OCCCN1CCOCC1 [Foretinib (Foretinib)] (drug 1000 nM) | 19.5 | 26.2 | 16.9 | 20.7 | 9.43 | 0.383 | 13.7 | 31.4 | 10.3 | 1.4 | 44.6 | 28.5 | 20.6 | 17.8 | 19
12 | CNC(=O)c1cc(Oc2ccc(NC(=O)Nc3ccc(Cl)c(C(F)(F)F)c3)c(F)c2)ccn1 [Regorafenib (BAY 73-4506)] (drug 10000 nM) | 32.6 | 18.1 | 52.7 | 33.5 | 22.4 | 17 | 18.3 | 93.1 | 76.2 | 38 | 73 | 16.3 | 29.1 | 18.2 | 31.3
13 | O=C(c1cc(Cc2n[nH]c(=O)c3ccccc23)ccc1F)N1CCN(C(=O)C2CC2)CC1 [Olaparib] (drug 10000 nM) | 6.09 | -1.72 | -12.5 | 18 | 9.56 | 2.83 | -2.23 | 11.7 | 6.64 | -3.98 | -18.1 | 13.8 | 10.8 | 0.545 | 3.42
